IC50 data for 12 compounds are collected here from patent US12410208B2, “(2-acetamidyl)thio-beta-D-galactopyranoside derivatives” (Idorsia Pharmaceuticals Ltd, priority 2020, dated 2025).

As usually defined, the IC50 is the midpoint of a concentration-inhibition curve.

For assay [1], the target named is biotinylated human Gal-3 (hGal-3) (Homo sapiens, UniProt P17931). As to the kind of experiment: Competitive binding assay: biotinylated hGal-3 binding to microplate-adsorbed asialofetuin (ASF), spectrophotometric. The note with it: hGal-3, read-out: IC50 (Gal-3 inhibition). In short, it runs like this:
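Serially diluted compounds competed with asialofetuin on the plate for biotinylated human Gal-3 during a 3 h incubation at 4° C. Streptavidin-peroxidase with ABTS gave the spectrophotometric signal. IC50 values were averaged over repeat runs.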

The target of another assay is human Gal-1 (hGal-1) (Homo sapiens, UniProt P09382). As to the kind of experiment: Competitive binding assay: biotinylated hGal-1 binding to microplate-adsorbed asialofetuin (ASF), spectrophotometric. The note with it: hGal-1 binding to asialofetuin; Table 15; R and S epimers of selected Examples also listed; read-out: IC50 (Galectin-1 inhibition). The essentials: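 Spectrophotometric competition readout with ABTS after streptavidin-peroxidase (80 ng/mL, 1 h, 4 °C) detection of bound biotinylated hGal-1.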

Where two headings read alike, the source gives them in different places.

Sequence of human Gal-1 (hGal-1) (P09382 whole entry): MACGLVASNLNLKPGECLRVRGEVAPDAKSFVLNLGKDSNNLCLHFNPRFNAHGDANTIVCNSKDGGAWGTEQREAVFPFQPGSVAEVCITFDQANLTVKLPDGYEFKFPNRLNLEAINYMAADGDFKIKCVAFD
Sequence of biotinylated human Gal-3 (hGal-3) (P17931 whole entry): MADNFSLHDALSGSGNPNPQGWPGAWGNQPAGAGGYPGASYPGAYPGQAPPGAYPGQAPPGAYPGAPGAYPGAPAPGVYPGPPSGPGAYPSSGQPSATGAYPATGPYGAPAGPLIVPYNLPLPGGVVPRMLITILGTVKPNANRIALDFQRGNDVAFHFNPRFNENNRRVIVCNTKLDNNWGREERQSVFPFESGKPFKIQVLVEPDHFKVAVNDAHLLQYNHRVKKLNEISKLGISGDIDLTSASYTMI

For the compound `CO[C@@H]1[C@@H](n2cc(-c3cc(F)c(F)c(F)c3)nn2)[C@@H](O)[C@@H](CO)O[C@H]1SC(C(=O)N1CCC(F)(F)CC1)C1(O)CCC2(CC1)COC2` (stereo partly drawn) [Example 2.70.226.I., 1-(4,4-Difluoropiperidin-1-yl)-2-(((2S,3R,4S,5R,6R)-5-hydroxy-6-(hydroxymethyl)-3-methoxy-4-(4-(3,4,5-trifluorophenyl)-1H-1,2,3-triazol-1-yl)tetrahydro-2H-pyran-2-yl)thio)-2-(7-hydroxy-2-oxaspiro[3.5]nonan-7-yl)ethan-1-one], the results for the IC50 (in assay [1] (Table 13); at human Gal-1 (hGal-1)) were 110 nM and 200 nM, respectively.

Regarding `CO[C@@H]1[C@@H](n2cc(-c3cc(F)c(F)c(F)c3)nn2)[C@@H](O)[C@@H](CO)O[C@H]1S[C@@H](C(=O)N1CCC(F)(F)CC1)C1(O)CCC2(CCCC2)CC1` [Example 2.71.226R.I., (R)-1-(4,4-Difluoropiperidin-1-yl)-2-(((2S,3R,4S,5R,6R)-5-hydroxy-6-(hydroxymethyl)-3-methoxy-4-(4-(3,4,5-trifluorophenyl)-1H-1,2,3-triazol-1-yl)tetrahydro-2H-pyran-2-yl)thio)-2-(8-hydroxyspiro[4.5]decan-8-yl)ethan-1-one], the 50% inhibitory concentration (IC50) is 670 nM in assay [1] (Table 13) and 1100 nM at human Gal-1 (hGal-1).

Regarding `CO[C@@H]1[C@@H](n2cc(-c3cc(F)c(F)c(F)c3)nn2)[C@@H](O)[C@@H](CO)O[C@H]1S[C@H](C(=O)N1CCC(F)(F)CC1)C1(O)CCC2(CCCC2)CC1` [Example 2.71.226S.I., (S)-1-(4,4-Difluoropiperidin-1-yl)-2-(((2S,3R,4S,5R,6R)-5-hydroxy-6-(hydroxymethyl)-3-methoxy-4-(4-(3,4,5-trifluorophenyl)-1H-1,2,3-triazol-1-yl)tetrahydro-2H-pyran-2-yl)thio)-2-(8-hydroxyspiro[4.5]decan-8-yl)ethan-1-one], the IC50 in assay [1] (Table 13) was determined as 100 nM; on human Gal-1 (hGal-1), 270 nM.

Take `CO[C@@H]1[C@@H](n2cc(-c3cc(F)c(F)c(F)c3)nn2)[C@@H](O)[C@@H](CO)O[C@H]1SC(C(=O)N1CCC(F)(F)CC1)C1(O)CCC2(CCOCC2)CC1` (stereo partly drawn) [Example 2.72.226.I., 1-(4,4-Difluoropiperidin-1-yl)-2-(((2S,3R,4S,5R,6R)-5-hydroxy-6-(hydroxymethyl)-3-methoxy-4-(4-(3,4,5-trifluorophenyl)-1H-1,2,3-triazol-1-yl)tetrahydro-2H-pyran-2-yl)thio)-2-(9-hydroxy-3-oxaspiro[5.5]undecan-9-yl)ethan-1-one]: the IC50 in assay [1] (Table 13) amounted to 60 nM; at human Gal-1 (hGal-1), 120 nM.

For the compound `CO[C@@H]1[C@@H](n2cc(-c3cc(F)c(F)c(F)c3)nn2)[C@@H](O)[C@@H](CO)O[C@H]1S[C@@H](C(=O)N1CCC(F)(F)CC1)C1(O)CCC2(CCOCC2)CC1` [Example 2.72.226R.I., (R)-1-(4,4-Difluoropiperidin-1-yl)-2-(((2S,3R,4S,5R,6R)-5-hydroxy-6-(hydroxymethyl)-3-methoxy-4-(4-(3,4,5-trifluorophenyl)-1H-1,2,3-triazol-1-yl)tetrahydro-2H-pyran-2-yl)thio)-2-(9-hydroxy-3-oxaspiro[5.5]undecan-9-yl)ethan-1-one], the results for the IC50 (in assay [1] (Table 13); on human Gal-1 (hGal-1)) were 14900 nM and 39600 nM, respectively.

In the case of `CO[C@@H]1[C@@H](n2cc(-c3cc(F)c(F)c(F)c3)nn2)[C@@H](O)[C@@H](CO)O[C@H]1S[C@H](C(=O)N1CCC(F)(F)CC1)C1(O)CCC2(CCOCC2)CC1` [Example 2.72.226S.I., (S)-1-(4,4-Difluoropiperidin-1-yl)-2-(((2S,3R,4S,5R,6R)-5-hydroxy-6-(hydroxymethyl)-3-methoxy-4-(4-(3,4,5-trifluorophenyl)-1H-1,2,3-triazol-1-yl)tetrahydro-2H-pyran-2-yl)thio)-2-(9-hydroxy-3-oxaspiro[5.5]undecan-9-yl)ethan-1-one], the 50% inhibitory concentration (IC50) came out at 40 nM in assay [1] (Table 13) and 100 nM at human Gal-1 (hGal-1).

As to `CCN(C)C(=O)C(S[C@@H]1O[C@H](CO)[C@H](O)[C@H](n2cc(-c3cc(F)c(C)c(F)c3)nn2)[C@H]1O)C1(O)CCOCC1` (stereo partly drawn) [Example 3.41.203., 2-(((2S,3R,4S,5R,6R)-4-(4-(3,5-Difluoro-4-methylphenyl)-1H-1,2,3-triazol-1-yl)-3,5-dihydroxy-6-(hydroxymethyl)tetrahydro-2H-pyran-2-yl)thio)-N-ethyl-2-(4-hydroxytetrahydro-2H-pyran-4-yl)-N-methylacetamide], the IC50 is 40 nM in assay [1] (Table 11) and 680 nM on human Gal-1 (hGal-1).

Consider `CCN(C)C(=O)C(S[C@@H]1O[C@H](CO)[C@H](O)[C@H](n2cc(-c3cc(F)cc(F)c3)nn2)[C@H]1O)C1(O)CCOCC1` (stereo partly drawn) [Example 10.41.203., 2-(((2S,3R,4S,5R,6R)-4-(4-(3,5-Difluorophenyl)-1H-1,2,3-triazol-1-yl)-3,5-dihydroxy-6-(hydroxymethyl)tetrahydro-2H-pyran-2-yl)thio)-N-ethyl-2-(4-hydroxytetrahydro-2H-pyran-4-yl)-N-methylacetamide], for which the IC50 in assay [1] (Table 11) was 100 nM; on human Gal-1 (hGal-1) it was 270 nM.

In the case of `CCN(C)C(=O)C(S[C@@H]1O[C@H](CO)[C@H](O)[C@H](n2cc(-c3cc(F)c(Cl)c(F)c3)nn2)[C@H]1O)C1(O)CCOCC1` (stereo partly drawn) [Example 11.41.203., 2-(((2S,3R,4S,5R,6R)-4-(4-(4-Chloro-3,5-difluorophenyl)-1H-1,2,3-triazol-1-yl)-3,5-dihydroxy-6-(hydroxymethyl)tetrahydro-2H-pyran-2-yl)thio)-N-ethyl-2-(4-hydroxytetrahydro-2H-pyran-4-yl)-N-methylacetamide], the IC50 came out at 30 nM in assay [1] (Table 11) and 320 nM on human Gal-1 (hGal-1).

With `CCN(C)C(=O)C(S[C@@H]1O[C@H](CO)[C@H](O)[C@H](n2cc(-c3ccc(Br)c(F)c3)nn2)[C@H]1O)C1(O)CCOCC1` (stereo partly drawn) [Example 12.41.203., 2-(((2S,3R,4S,5R,6R)-4-(4-(4-Bromo-3-fluorophenyl)-1H-1,2,3-triazol-1-yl)-3,5-dihydroxy-6-(hydroxymethyl)tetrahydro-2H-pyran-2-yl)thio)-N-ethyl-2-(4-hydroxytetrahydro-2H-pyran-4-yl)-N-methylacetamide], the IC50 in assay [1] (Table 11) was 40 nM; at human Gal-1 (hGal-1), 360 nM.

Turning to `CCN(C)C(=O)C(S[C@@H]1O[C@H](CO)[C@H](O)[C@H](n2cc(-c3cc(F)cc(Cl)c3)nn2)[C@H]1O)C1(O)CCOCC1` (stereo partly drawn) [Example 13.41.203., 2-(((2S,3R,4S,5R,6R)-4-(4-(3-Chloro-5-fluorophenyl)-1H-1,2,3-triazol-1-yl)-3,5-dihydroxy-6-(hydroxymethyl)tetrahydro-2H-pyran-2-yl)thio)-N-ethyl-2-(4-hydroxytetrahydro-2H-pyran-4-yl)-N-methylacetamide], the IC50 in assay [1] (Table 11) turned out to be 80 nM; on human Gal-1 (hGal-1) it was 130 nM.

On to `CCN(C)C(=O)C(S[C@@H]1O[C@H](CO)[C@H](O)[C@H](n2cc(-c3nc(Br)cs3)nn2)[C@H]1O)C1(O)CCOCC1` (stereo partly drawn) [Example 14.41.203., 2-(((2S,3R,4S,5R,6R)-4-(4-(4-Bromothiazol-2-yl)-1H-1,2,3-triazol-1-yl)-3,5-dihydroxy-6-(hydroxymethyl)tetrahydro-2H-pyran-2-yl)thio)-N-ethyl-2-(4-hydroxytetrahydro-2H-pyran-4-yl)-N-methylacetamide], for which the IC50 was 150 nM in assay [1] (Table 11) and 30 nM on human Gal-1 (hGal-1).
